Experimental data: patent US6737383B1, “Herbicidal oxadiazolidines” (priority 1999, dated 2004)

Assays:
bedstraw = experiment: Test B pre/postemergence bedstraw; type: in vivo, Galium aparine
Outline: (§1)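 Herbicidal effect was estimated by eye on a ten-point control scale after plants spent twelve to sixteen days in a greenhouse following soil or foliar treatment. Foliar sprays targeted plants at one to four leaves; all doses were formulated in a non-phytotoxic solvent with surfactant.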

blackgrass = experiment: Test B pre/postemergence blackgrass; type: in vivo, Alopecurus myosuroides
Outline: as §1

surinam grass = experiment: Test B pre/postemergence surinam grass; type: in vivo, Brachiaria decumbens
Outline: as §1

cocklebur = experiment: Test B pre/postemergence cocklebur; type: in vivo, Xanthium strumarium
Outline: as §1

corn = experiment: Test B pre/postemergence corn; type: in vivo, Zea mays
Outline: as §1

crabgrass = experiment: Test B pre/postemergence crabgrass; type: in vivo, Digitaria sanguinalis
Outline: as §1

giant foxtail = experiment: Test B pre/postemergence giant foxtail; type: in vivo, Setaria faberii
Outline: as §1

morningglory = experiment: Test B pre/postemergence morningglory; type: in vivo, Ipomoea hederacea
Outline: as §1

pigweed = experiment: Test B pre/postemergence pigweed; type: in vivo, Amaranthus retroflexus
Outline: as §1

rape = experiment: Test B pre/postemergence rape; type: in vivo, Brassica napus
Outline: as §1

soybean = experiment: Test B pre/postemergence soybean; type: in vivo, Glycine max
Outline: as §1

sugar beet = experiment: Test B pre/postemergence sugar beet; type: in vivo, Beta vulgaris
Outline: as §1

velvetleaf = experiment: Test B pre/postemergence velvetleaf; type: in vivo, Abutilon theophrasti
Outline: as §1

wheat = experiment: Test B pre/postemergence wheat; type: in vivo, Triticum aestivum
Outline: as §1

wild oat = experiment: Test B pre/postemergence wild oat; type: in vivo, Avena fatua
Outline: as §1

purple nutsedge = experiment: Test B pre/postemergence purple nutsedge; type: in vivo, Cyperus rotundus
Outline: as §1

[1] = Postemergence, Rate 62 g/ha, scale of 0 to 10, 0 is no effect, 10 is complete control
[2] = Postemergence, Rate 125 g/ha, scale 0 to 10, 0 is no effect, 10 is complete control
[3] = Postemergence, Rate 500 g/ha, scale 0 to 10, 0 is no effect, 10 is complete control
[4] = Preemergence, Rate 62 g/ha, scale 0 to 10 (0 no effect, 10 complete control)
[5] = Preemergence, Rate 125 g/ha, scale 0 to 10, 0 is no effect, 10 is complete control
[6] = Preemergence, Rate 500 g/ha, scale of 0 to 10 where 0 is no effect and 10 is complete control
[7] = Rate 250 g/ha, Postemergence, scale of 0 to 10 where 0 is no effect and 10 is complete control

CC(Cl)=CCn1c(=O)on(C(=O)N(c2ccc(Cl)cc2)C(C)C)c1=O [Compound 544]
Bedstraw plant response rating (bedstraw; [1]): 0 | Bedstraw plant response rating (bedstraw; [2]): 2 | Plant response rating, Bedstraw (bedstraw; [3]): 3 | Bedstraw plant response rating (bedstraw; [4]): 0 | Bedstraw plant response rating (bedstraw; [5]): 2 | Bedstraw plant response rating (0 to 10 scale) (bedstraw; Preemergence, Rate 250 g/ha): 7 | Bedstraw plant response rating (bedstraw; [6]): 9 | Plant response rating, Bedstraw (bedstraw; [7]): 2 | Blackgrass plant response rating (blackgrass; [1]): 0 | Blackgrass plant response rating (blackgrass; [2]): 0 | Plant response rating, Blackgrass (blackgrass; [3]): 3 | Blackgrass plant response rating (blackgrass; [4]): 0 | Blackgrass plant response rating (blackgrass; [5]): 0 | Blackgrass plant response rating (0 to 10 scale) (blackgrass; Preemergence, Rate 250 g/ha): 2 | Blackgrass plant response rating (blackgrass; [6]): 6 | Plant response rating, Blackgrass (blackgrass; [7]): 0 | B. signalgrass plant response rating (surinam grass; [1]): 0 | B. signalgrass plant response rating (surinam grass; [2]): 0 | Plant response rating, B. signalgrass (surinam grass; [3]): 3 | B. signalgrass plant response rating (surinam grass; [4]): 3 | B. signalgrass plant response rating (surinam grass; [5]): 3 | B. signalgrass plant response rating (0 to 10 scale, 0 is no effect, 10 is complete control) (surinam grass; Preemergence, Rate 250 g/ha): 6 | B. signalgrass plant response rating (surinam grass; [6]): 8 | Plant response rating, B. signalgrass (surinam grass; [7]): 0 | Cocklebur plant response rating (cocklebur; [1]): 3 | Cocklebur plant response rating (cocklebur; [2]): 3 | Plant response rating, Cocklebur (cocklebur; [3]): 3 | Cocklebur plant response rating (cocklebur; [4]): 0 | Cocklebur plant response rating (0 to 10 scale) (cocklebur; Preemergence, Rate 250 g/ha): 0 | Cocklebur plant response rating (cocklebur; [6]): 0 | Plant response rating, Cocklebur (cocklebur; [7]): 3 | Corn plant response rating (corn; [1]): 0 | Corn plant response rating (corn; [2]): 0 | Plant response rating, Corn (corn; [3]): 0 | Corn plant response rating (corn; [4]): 0 | Corn plant response rating (corn; [5]): 0 | Corn plant response rating (0 to 10 scale) (corn; Preemergence, Rate 250 g/ha): 0 | Corn plant response rating (corn; [6]): 0 | Plant response rating, Corn (corn; [7]): 0 | Crabgrass plant response rating (crabgrass; [1]): 0 | Crabgrass plant response rating (crabgrass; [2]): 8 | Plant response rating, Crabgrass (crabgrass; [3]): 9 | Crabgrass plant response rating (crabgrass; [4]): 9 | Crabgrass plant response rating (crabgrass; [5]): 9 | Crabgrass plant response rating (0 to 10 scale) (crabgrass; Preemergence, Rate 250 g/ha): 10 | Crabgrass plant response rating (crabgrass; [6]): 10 | Plant response rating, Crabgrass (crabgrass; [7]): 8 | Giant foxtail plant response rating (giant foxtail; [1]): 0 | Giant foxtail plant response rating (giant foxtail; [2]): 0 | Giant foxtail plant response rating (giant foxtail; [4]): 9 | Giant foxtail plant response rating (giant foxtail; [5]): 10 | Giant foxtail plant response rating (0 to 10 scale) (giant foxtail; Preemergence, Rate 250 g/ha): 10 | Giant foxtail plant response rating (giant foxtail; [6]): 10 | Plant response rating, Giant foxtail (giant foxtail; [7]): 6 | Morningglory plant response rating (morningglory; [1]): 3 | Morningglory plant response rating (morningglory; [2]): 4 | Plant response rating, Morningglory (morningglory; [3]): 10 | Morningglory plant response rating (morningglory; [4]): 0 | Morningglory plant response rating (morningglory; [5]): 0 | Morningglory plant response rating (0 to 10 scale) (morningglory; Preemergence, Rate 250 g/ha): 0 | Morningglory plant response rating (morningglory; [6]): 0 | Plant response rating, Morningglory (morningglory; [7]): 10 | Redroot pigweed plant response rating (pigweed; [1]): 0 | Redroot pigweed plant response rating (pigweed; [2]): 0 | Plant response rating, Redroot pigweed (pigweed; [3]): 2 | Redroot pigweed plant response rating (pigweed; [4]): 3 | Redroot pigweed plant response rating (pigweed; [5]): 3 | Redroot pigweed plant response rating (0 to 10 scale) (pigweed; Preemergence, Rate 250 g/ha): 3 | Redroot pigweed plant response rating (pigweed; [6]): 10 | Plant response rating, Redroot pigweed (pigweed; [7]): 0 | Rape plant response rating (rape; [1]): 0 | Rape plant response rating (rape; [2]): 2 | Plant response rating, Rape (rape; [3]): 3 | Rape plant response rating (rape; [4]): 0 | Rape plant response rating (rape; [5]): 0 | Rape plant response rating (0 to 10 scale) (rape; Preemergence, Rate 250 g/ha): 3 | Rape plant response rating (rape; [6]): 6 | Plant response rating, Rape (rape; [7]): 2 | Soybean plant response rating (soybean; [1]): 0 | Soybean plant response rating (soybean; [2]): 2 | Plant response rating, Soybean (soybean; [3]): 2 | Soybean plant response rating (soybean; [4]): 0 | Soybean plant response rating (soybean; [5]): 0 | Soybean plant response rating (0 to 10 scale) (soybean; Preemergence, Rate 250 g/ha): 0 | Soybean plant response rating (soybean; [6]): 0 | Plant response rating, Soybean (soybean; [7]): 0 | Sugarbeets plant response rating (sugar beet; [1]): 0 | Sugarbeets plant response rating (sugar beet; [2]): 0 | Plant response rating, Sugarbeets (sugar beet; [3]): 3 | Sugarbeets plant response rating (sugar beet; [4]): 0 | Sugarbeets plant response rating (sugar beet; [5]): 0 | Sugarbeets plant response rating (0 to 10 scale) (sugar beet; Preemergence, Rate 250 g/ha): 0 | Sugarbeets plant response rating (sugar beet; [6]): 4 | Plant response rating, Sugarbeets (sugar beet; [7]): 1 | Velvetleaf plant response rating (velvetleaf; [1]): 0 | Velvetleaf plant response rating (velvetleaf; [2]): 0 | Plant response rating, Velvetleaf (velvetleaf; [3]): 0 | Velvetleaf plant response rating (velvetleaf; [4]): 0 | Velvetleaf plant response rating (velvetleaf; [5]): 0 | Velvetleaf plant response rating (0 to 10 scale) (velvetleaf; Preemergence, Rate 250 g/ha): 0 | Velvetleaf plant response rating (velvetleaf; [6]): 0 | Plant response rating, Velvetleaf (velvetleaf; [7]): 0 | Wheat plant response rating (wheat; [1]): 0 | Wheat plant response rating (wheat; [2]): 0 | Plant response rating, Wheat (wheat; [3]): 0 | Wheat plant response rating (wheat; [4]): 0 | Wheat plant response rating (wheat; [5]): 0 | Wheat plant response rating (0 to 10 scale) (wheat; Preemergence, Rate 250 g/ha): 0 | Wheat plant response rating (wheat; [6]): 0 | Plant response rating, Wheat (wheat; [7]): 0 | Wild oats plant response rating (wild oat; [1]): 0 | Wild oats plant response rating (wild oat; [2]): 0 | Plant response rating, Wild oats (wild oat; [3]): 2 | Wild oats plant response rating (wild oat; [4]): 0 | Wild oats plant response rating (wild oat; [5]): 0 | Wild oats plant response rating (0 to 10 scale) (wild oat; Preemergence, Rate 250 g/ha): 2 | Wild oats plant response rating (wild oat; [6]): 4 | Plant response rating, Wild oats (wild oat; [7]): 0 | Nutsedge plant response rating (purple nutsedge; [1]): 0 | Nutsedge plant response rating (purple nutsedge; [2]): 0 | Plant response rating, Nutsedge (purple nutsedge; [3]): 0 | Nutsedge plant response rating (purple nutsedge; [4]): 0 | Nutsedge plant response rating (purple nutsedge; [5]): 0 | Nutsedge plant response rating (0 to 10 scale) (purple nutsedge; Preemergence, Rate 250 g/ha): 0 | Nutsedge plant response rating (purple nutsedge; [6]): 0 | Plant response rating, Nutsedge (purple nutsedge; [7]): 0
